Assay results: patent US20240035063A1, “SYNTHETIC MIXED CULTURE RESEMBLING A SKIN MICROBIOME” (Evonik Operations GmbH, priority 2020, published 2024)

Key:
[1] = test system: synthetic mixed culture resembling a skin microbiome (core microbiome model, strain mix ratio 1); assay: Anaerobic cultivation of core skin microbiome model (ratio 1) with test compound; type: cell-based; details: ratio 1, compound added at T=0, T=22 h
Description: Preculture cultivation and ratio mixing is carried out as in example 1. Anaerobic cultivation is done using a BioLector [[…]-labs; Arnold-Sommerfeld-Ring 2, 52499 Baesweiler] small scale test system with MTP-48-BOH 1 plates and the anaerobic module including an external mass flow controller for nitrogen (N2). 100 μl of strain mix, according to the ratios in table 2 are added to 1 ml BHI media resulting in a starting OD600 of 0.091. Cultivation is done at 37° C., a shaking frequency of 600 rpm and under nitrogen flushing for 22 h until the process is stopped. Preculture cultivation, ratio mixing and cultivation is carried out as in example 1 or 2. Test compounds are added to the cultures at T=0, 4, 8, 12, 16, or 24 h. At the end of the cultivation samples are taken and processed as in example 1 or 2 and results are compared to non-treated cultures to evaluate the effect of the test compounds on the core microbiome model.

[2] = test system: synthetic mixed culture resembling a skin microbiome (core microbiome model, strain mix ratio 1); assay: Aerobic cultivation of core skin microbiome model (ratio 1) with test compound, 16S rRNA sequencing; type: cell-based; details: ratio 1, compound added at T=0, T=28 h
Description: Individual bacterial strains are inoculated from cryocultures to initiate preculture growth. BHI Media (110493; Merck KGaA, 64293 Darmstadt) or DSMZ media 92 or DSMZ media 535 media according to the recommendations of the German Collection of Microorganisms and Cell Cultures GmbH are used for preculture cultivation. At the end of cultivation strains are diluted to result in an optical density of OD600=1 using BHI media. These single strain cultures are mixed in defined strain ratios depending on their growth properties. Cultivation is carried out using a BioLector [[…]-labs; Arnold-Sommerfeld-Ring 2, 52499 Baesweiler] small scale test system with MTP-48-BOH 1 plates. 100 μl of strain mix, according to the ratios in table 2 are added to 1 ml BHI media in resulting in a starting OD600 of 0.091. Cultivation is done at 37° C., a shaking frequency of 600 rpm and relative humidity of 85% for 28 h until the process is stopped. At the end of cultivation OD600 is determined, and the remaining culture is centrifuged at 4° C., 5000 rpm and 5 min in an Eppendorf table centrifuge. The supernatant is discarded, and the pellet is stored at -20° C. Genomic DNA is extracted from these samples using the DNeasy PowerSoil Pro Kit [Qiagen GmbH, QIAGEN Strasse 1, 40724 Hilden]. DNA samples are analyzed by LGC Genomics GmbH [Ostendstraße 25, 12459 Berlin] using primer pair 341 F, Seq. ID NO 1, and […], Seq. ID NO 2, or library preparation and […] MiSeq for sequencing. Results are processed by LGC Genomics GmbH and mapped to an individual reference database containing the sequences of the strains which are present in the individual model. Preculture cultivation, ratio mixing and cultivation is carried out as in example 1 or 2. Test compounds are added to the cultures at T=0, 4, 8, 12, 16, or 24 h. At the end of the cultivation samples are taken and processed as in example 1 or 2 and results are compared to non-treated cultures to evaluate the effect of the test compounds on the core microbiome model.

Compound: sodium lauryl ether sulfate
- general trends compared with aerobic conditions [1]: remain the same
- abundance of all other species ([2]; species other than S. warneri (and S. capitis for the lysate)): at the expense of all other Staphylococcus species
- abundance of S. warneri ([2]; vs non-treated culture): significantly increased abundance
- microbial diversity ([2]; vs non-treated culture): remarked loss of diversity
- shift compared to the baseline composition ([2]; vs non-treated culture): drastic microbial community shifts

Compound: CN(CC(=O)O)C(=N)N [Creatine]
- general trends compared with aerobic conditions [1]: remain the same
- relative abundance of S. aureus ([2]; vs non-treated culture): slightly decreased
- relative abundance of S. epidermidis ([2]; vs non-treated culture): slightly increased
- relative abundance of S. hominis ([2]; vs non-treated culture): slightly increased
- shift compared to the baseline composition ([2]; vs non-treated culture): minor shift
